Measurements taken from US20160279269A1, “METHOD AND REAGENT FOR PREPARING A DIAGNOSTIC COMPOSITION” (GE HEALTHCARE AS, priority 2013, published 2016).

Assay: Measured osmolality of ioforminol injection solution, including on dilution and after autoclaving
Format: physicochemical
Method: Isotonicity—A solution is isotonic with human blood plasma if no net water migration takes place over the blood cell membranes after mixing the solution with human blood. This means that the measured osmolality of the solution is equal to that of human blood plasma (approx. 290 mOsmol/kg water). This is the goal for any parenteral drug formulation, being more important if injection volumes are relatively large (typically >10 ml) and if injection rate is fast.
Ioforminol 320 mg I/ml injection contains […]. With a molar weight of 1522,13 Dalton, this would be 420.3 mM. This concentrated solution contains 699 g water per litre. Density is 1.357 kg/litre, thus the weight of one litre Ioforminol 320 mg I/ml injection is 1.357 kg. Water is therefore only about half of the weight. Theoretical estimation of osmolality would be 601.5 mOsmol/kg water given 420.3 mM ioforminol, no dissociation under dissolution and 699 g water as solvent.
Knowing that blood plasma osmolality is approx. 290 mOsmol/kg water, such a solution would be hypertonic by a factor 2 even without other components/solutes. Yet measured osmolality of the complete formulation of ioforminol 320 mg I/ml was around 290 mOsmol/kg water. When one subtracts the contribution to osmolality of the other components in the formulation (Tris, EDTA, NaCl and CaCl2), the net contribution of ioforminol was around 129 mOsmol/kg, not around 600 mOsmol/kg. This is approximately 22% of the expected theoretical osmolality if every ioforminol molecule would act as one hydrated particle.
This can be attributed to the very high concentration of ioforminol in the 320 mg I/ml solution. […] However, the percentage only increases to approximately 36% when the concentrated ioforminol composition was diluted more than fourfold. The result of this phenomenon is the linear correlation between ioforminol concentration, salt concentration and osmolality in the interval 70-330 mg I/ml Ioforminol.

Structure (SMILES): O=CN(CC(O)CN(C=O)c1c(I)c(C(=O)NCC(O)CO)c(I)c(C(=O)NCC(O)CO)c1I)c1c(I)c(C(=O)NCC(O)CO)c(I)c(C(=O)NCC(O)CO)c1I (centres unmarked) [ioforminol, 5-[formyl-[3-[formyl-[3,5-bis(2,3-dihydroxypropylcarbamoyl)-2,4,6-triiodophenyl]amino]-2-hydroxypropyl]amino]-N,N′-bis(2,3-dihydroxypropyl)-2,4,6-triiodobenzene-1,3-dicarboxamide]
- net contribution of ioforminol to osmolality (320 mg I/ml, contribution of Tris, EDTA, NaCl and CaCl2 subtracted): around 129 mOsmol/kg
- percentage of the expected theoretical osmolality (320 mg I/ml, theoretical = every ioforminol molecule acts as one hydrated particle): approximately 22%
- percentage contribution to osmolality after autoclaving (121° C. for approximately 15 minutes): does not change
- percentage of the expected theoretical osmolality (after more than fourfold dilution from 320 to 70 mg I/ml): approximately 36%
- osmolality compared to theoretical value (aqueous solution, theoretical = one molecule acts as one hydrated particle): lower
